Common to all, as to assay type: cell-based
In one series the test system is NCI-H526 cell line. Put plainly: Cell viability assay for NCI-H526 cell line (EZ-Cytox). The settings on record: Homo sapiens, NCI-H526, 120 h; H526 cells, 5 days, 3000 nM to 0.46 nM. The method, then: (§1) 3. Cell Viability Assay for NCI-H69, NCI-H526 Cell Lines
(§2) (1) Culture of NCI-H69, NCI-H526 Cell Lines
(§3) The NCI-H69 (hereafter H69) and NCI-H526 (hereafter H526) cell lines were purchased from KCLB.
(§4) (2) Treatment of Compounds of the Present Invention and Method of Cell Viability Assay
(§5) After treating the compound to each well to make the total volume of 200 μl, it was cultured in a CO2 incubator (Thermo Fisher Scientific) for 5 days. […] The absorbance of the completely cultured sample was measured by setting the wavelength of a plate reader (BMG Labtech) to […], and was measured after shaking for 3 minutes in a plate reader before measurement.
(§6) The results of cell viability for H526 and H69 cell line are shown in Table 3 and Table 4, respectively.
(§7) In Table 3 and Table 4, Activity represents IC50 value of each Exemplary Compound treatment group to H526 and H69 cell line, respectively (A: <30 nM, B: <50 nM, C: <100 nM, D: <200 nM, E: <400 nM).

A further series deals with T1, PLK1 (Homo sapiens, UniProt P53350).
T1 construct: endogenous in cells; host or cells: HeLa LgBit (Plk1-HiBit KI): HeLa stably expressing LgBit, with a CRISPR/Cas9 knock-in of HiBit at the endogenous PLK1 locus
T1 sequence (P53350 whole entry): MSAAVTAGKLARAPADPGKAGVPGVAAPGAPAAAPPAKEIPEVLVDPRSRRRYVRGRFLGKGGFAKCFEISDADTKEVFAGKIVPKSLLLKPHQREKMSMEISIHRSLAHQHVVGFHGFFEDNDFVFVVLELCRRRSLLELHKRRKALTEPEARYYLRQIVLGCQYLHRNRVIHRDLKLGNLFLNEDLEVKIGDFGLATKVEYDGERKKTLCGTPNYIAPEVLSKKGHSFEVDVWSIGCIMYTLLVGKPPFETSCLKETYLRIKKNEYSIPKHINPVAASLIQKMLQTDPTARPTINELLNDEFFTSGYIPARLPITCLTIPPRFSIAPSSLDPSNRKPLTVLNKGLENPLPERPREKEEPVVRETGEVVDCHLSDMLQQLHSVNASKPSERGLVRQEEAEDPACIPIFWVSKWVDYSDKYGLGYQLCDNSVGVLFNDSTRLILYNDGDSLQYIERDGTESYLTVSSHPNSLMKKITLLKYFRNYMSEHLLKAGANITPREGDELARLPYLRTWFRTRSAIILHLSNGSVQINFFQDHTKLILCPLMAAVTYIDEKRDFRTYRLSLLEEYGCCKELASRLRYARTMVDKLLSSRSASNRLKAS
The experiment in a line: Luciferase assay for PLK1 in HeLa LgBit (Plk1-HiBit KI) cell line. The settings on record: 300 nM compound, luminescence after 9 hours. The method, then: 2. Luciferase Assay for PLK1
(1) Preparation and Culture of HeLa LgBit (Plk1-HiBit KI) Cell Line
A HeLa cell line in which the LgBit vector was transfected and expressed stably was prepared. Then, after constructing gRNA and donor to express the HiBit amino acid sequence behind the C-terminal of the PLK1 gene, which was inherent in the cell, it was inserted into the cell together with a vector capable of expressing CRISPR/Cas9. Only the cells in which the insertion was completed and knock-in had progressed were selected, sub-cultured and used.
For cell culture, DMEM (Gibco), FBS (Gibco), PS (Gibco), […] cell culture dish (SPL), […] cell culture dish (SPL), 96-well culture plate (SPL), PBS pH 7.4 (Gibco), TrypLE™ Express (Gibco), Cell counter (Thermo Fisher Scientific) and 0.4% Trypan Blue Solution (DYNEBIO) were used.
(2) Treatment of Compounds of the Present Invention and Method of Luciferase Assay
In the case of HeLa LgBit (Plk1-HiBit KI), the compounds were treated after being released after thymidine block, and the process was as follows. Thymidine (Sigma-Aldrich) was completely dissolved in ddH2O and used in the experiment. For thymidine block, the products were treated with 2 mM of thymidine and then incubated for 24 hours. For release and chemical treatment, the medium was suctioned and washed with 1×PBS. TrypLE™ (Gibco) was added and incubated in 37° C. CO2 incubator (Thermo Fisher Scientific) for 5 mins. Cells neutralized by adding complete media were counted through a counter. For each well of a 96-well culture plate (SPL), 3.3×10^4 cells and a total medium volume of 150 μl were seeded and incubated in a CO2 incubator.
Each cell line was incubated in a CO2 incubator for 18 hours, and Endurazine (Promega, Cat. No. N257B) was added to each well to make up 4% of the total volume. After adding compounds of Examples in a 96-well white plate (SPL) to a concentration of 300 nM, the wavelength of the plate reader (BMG Labtech, CLARIOstar Plus) was set to 470-480 nm, and then the luminescence was tracked in real time.
In Table 2, Activity represents the ratio of the luminescence value of each Exemplary Compound treatment group to DMSO treatment group (+++: <0.3, ++: <0.5, +: <0.7).
(In general: With HiBiT, luminescence reflects the tagged protein that the partner subunit can reach.)

The subject of the next series is NCI-H69 cell line. Put plainly: Cell viability assay for NCI-H69 cell line (EZ-Cytox). Particulars: Homo sapiens, NCI-H69, 120 h; H69 cells, 5 days, 3000 nM to 0.46 nM. The method, then:
as §1, §2, §3, §4, §5, §6, §7

A further series deals with MRC-5 cell line. The experiment in a line: Cell viability assay for MRC-5 cell line (EZ-Cytox). Particulars: for IC50: Homo sapiens, MRC5, 120 h. The method, then:
4. Cell Viability Assay for MRC-5 Cell Line
(1) Culture of MRC-5 Cell Line
The MRC-5 cell line was purchased from KCLB. Passage of cultured cells was maintained within P15.
(2) Treatment of Compounds of the Present Invention
Then, it was cultured in 37° C. CO2 incubator (Thermo Fisher Scientific) for 5 days.
(3) Cytotoxicity Experiment
CO2 incubator for 4 hours.

[1] abbreviates: MRC-5 normal cell line, 5 days, 10000 nM to 1.52 nM, read-out: Activity: IC50 value, cell viability, MRC-5 cell line (Exemplary Compounds).
Setting [2] is: read-out: Activity: IC50 value, cell viability, MRC-5 cell line (Comparative Compounds).

SMILES strings stand for the structures. Like-named read-outs stand apart in the source and are kept apart here.

Usually IC50 stands for the concentration that gives 50% inhibition. For `COc1cc(C(=O)NC2CCN(CCN3CCN(c4cc(F)c(NC5CCC(=O)NC5=O)cc4F)CC3)CC2)ncc1Nc1ncc2c(n1)N(C1CCCC1)CC(F)(F)C(=O)N2C` (stereo not shown) [Compound 68, 5-((9-cyclopentyl-7,7-difluoro-5-methyl-6-oxo-6,7,8,9-tetrahydro-5H-pyrimido[4,5-b][1,4]diazepin-2-yl)amino)-N-(1-(2-(4-(4-((2,6-dioxopiperidin-3-yl)amino)-2,5-difluorophenyl)piperazin-1-yl)ethyl)piperidin-4-yl)-4-methoxypicolinamide], the results for the IC50 in the series with NCI-H526 cell line, with NCI-H69 cell line and with MRC-5 cell line (setting [1]) were less than 50 nM, less than 100 nM and more than 10000 nM, respectively. Moreover, the “Activity: ratio of the luminescence value of compound treatment group to DMSO treatment group” value (“Activity: ratio” below) on PLK1 is “++ (++: <0.5)”.
For `COc1cc(C(=O)NN2CCC(CCN3CCN(c4cnc(C5CCC(=O)NC5=O)cc4F)CC3)CC2)ccc1Nc1ncc2c(n1)N(C(C)C)CC(F)(F)C(=O)N2C` (stereo not shown) [Compound 21, 4-((7,7-difluoro-9-isopropyl-5-methyl-6-oxo-6,7,8,9-tetrahydro-5H-pyrimido[4,5-b][1,4]diazepin-2-yl)amino)-N-(4-(2-(4-(6-(2,6-dioxopiperidin-3-yl)-4-fluoropyridin-3-yl)piperazin-1-yl)ethyl)piperidin-1-yl)-3-methoxybenzamide] the same measures were less than 30 nM, less than 30 nM, more than 10000 nM and “+++ (+++: <0.3)”.
For `COc1cc(C(=O)NN2CCC(CCN3CCN(c4cc(C)c(NC5CCC(=O)NC5=O)cc4F)CC3)CC2)ccc1Nc1ncc2c(n1)N(C1CCCC1)CC(F)(F)C(=O)N2C` (stereo not shown) [Compound 74, 4-((9-cyclopentyl-7,7-difluoro-5-methyl-6-oxo-6,7,8,9-tetrahydro-5H-pyrimido[4,5-b][1,4]diazepin-2-yl)amino)-N-(4-(2-(4-(4-((2,6-dioxopiperidin-3-yl)amino)-2-fluoro-5-methylphenyl)piperazin-1-yl)ethyl)piperidin-1-yl)-3-methoxybenzamide] the same measures were less than 30 nM, less than 30 nM, more than 10000 nM and “+++ (+++: <0.3)”.
Consider `COc1cc(C(=O)NC2CCN(C)CC2)c(F)cc1Nc1ncc2c(n1)N(C1CCCC1)CC(F)(F)C(=O)N2C` [Comparative Compound 4, TAK960, reference compound], for which the IC50 in the series on MRC-5 cell line (setting [2]) was found to be 9150 nM.
As to `COc1cc(C(=O)NC2CC3(CCN(CCC4CCN(c5cc(F)c(NC6CCC(=O)NC6=O)cc5F)CC4)CC3)C2)ccc1Nc1ncc2c(n1)N(C(C)C)CC(F)(F)C(=O)N2C` (stereo not shown) [Compound 61, 4-((7,7-difluoro-9-isopropyl-5-methyl-6-oxo-6,7,8,9-tetrahydro-5H-pyrimido[4,5-b][1,4]diazepin-2-yl)amino)-N-(7-(2-(1-(4-((2,6-dioxopiperidin-3-yl)amino)-2,5-difluorophenyl)piperidin-4-yl)ethyl)-7-azaspiro[3.5]nonan-2-yl)-3-methoxybenzamide], the IC50 with NCI-H526 cell line and with NCI-H69 cell line was less than 30 nM each time. The “Activity: ratio” value on PLK1 is “++ (++: <0.5)”.
For `CC[C@@H]1C(=O)N(C)c2cnc(Nc3ccc(C(=O)NC4CCN(C)CC4)cc3OC)nc2N1C1CCCC1` [Comparative Compound 2, BI2536, reference compound], the IC50 in the series on MRC-5 cell line (setting [2]) is 3090 nM.
Turning to `CC[C@@H]1C(=O)N(C)c2cnc(Nc3ccc(C(=O)NCCOCCOCCNc4cccc5c4C(=O)N(C4CCC(=O)NC4=O)C5=O)cc3OC)nc2N1C1CCCC1` (stereo partly shown) [Comparative Compound 1, reference compound], the “Cytotoxicity in normal cell line versus cancer cell lines (in words)” value in the series on MRC-5 cell line (MRC-5 normal cell line compared with cancer cell lines) is given as “exhibited a high level of cytotoxicity in normal cell line”.
Take `COc1cc(C(=O)NC2CC3(CCN(CC4CCN(c5cc(F)c(NC6CCC(=O)NC6=O)cc5F)CC4)CC3)C2)ccc1Nc1ncc2c(n1)N(C1CCCC1)CC(F)(F)C(=O)N2C` (stereo not shown) [Compound 70, 4-((9-cyclopentyl-7,7-difluoro-5-methyl-6-oxo-6,7,8,9-tetrahydro-5H-pyrimido[4,5-b][1,4]diazepin-2-yl)amino)-N-(7-((1-(4-((2,6-dioxopiperidin-3-yl)amino)-2,5-difluorophenyl)piperidin-4-yl)methyl)-7-azaspiro[3.5]nonan-2-yl)-3-methoxybenzamide]: the half-inhibitory concentration (IC50) in the series with NCI-H526 cell line and with NCI-H69 cell line was less than 30 nM each time. Also, the “Activity: ratio” value on PLK1 is listed as “+++ (+++: <0.3)”.
On to `CCN1CC(F)(F)C(=O)N(C)c2cnc(Nc3ccc(C(=O)NC4CC5(CCN(CC6CCN(c7ccc(C8CCC(=O)NC8=O)cc7F)CC6)CC5)C4)cc3OC)nc21` (stereo not shown) [Compound 4, N(7-((1-(4-(2,6-dioxopiperidin-3-yl)-2-fluorophenyl)piperidin-4-yl)methyl)-7-azaspiro[3.5]nonan-2-yl)-4-((9-ethyl-7,7-difluoro-5-methyl-6-oxo-6,7,8,9-tetrahydro-5H-pyrimido[4,5-b][1,4]diazepin-2-yl)amino)-3-methoxybenzamide], for which the IC50 with NCI-H526 cell line is less than 30 nM; with NCI-H69 cell line, less than 30 nM; with MRC-5 cell line (setting [1]), more than 10000 nM.
With `CC[C@@H]1C(=O)N(C)c2cnc(Nc3ccc(C(=O)N[C@H]4CC[C@H](N5CCN(CC6CC6)CC5)CC4)cc3OC)nc2N1C(C)C` [Comparative Compound 3, Volasertib, reference compound], the IC50 in the series on MRC-5 cell line (setting [2]) was 2940 nM.
In the case of `COc1cc(C(=O)NC2CCN(CCC3CCN(c4cc(F)c(NC5CCC(=O)NC5=O)cc4F)CC3)CC2)ccc1Nc1ncc2c(n1)N(C(C)C)CC(F)(F)C(=O)N2C` (stereo not shown) [Compound 62, 4-((7,7-difluoro-9-isopropyl-5-methyl-6-oxo-6,7,8,9-tetrahydro-5H-pyrimido[4,5-b][1,4]diazepin-2-yl)amino)-N-(1-(2-(1-(4-((2,6-dioxopiperidin-3-yl)amino)-2,5-difluorophenyl)piperidin-4-yl)ethyl)piperidin-4-yl)-3-methoxybenzamide], the IC50 in the series with NCI-H526 cell line and with NCI-H69 cell line was less than 30 nM in each case. Besides, the “Activity: ratio” value on PLK1 is given as “++ (++: <0.5)”.
`COc1cc(C(=O)NC2CC3(CCN(CCC4CCN(c5ccc(NC6CCC(=O)NC6=O)cc5F)CC4)CC3)C2)ccc1Nc1ncc2c(n1)N(C(C)C)CC(F)(F)C(=O)N2C` (stereo not shown) [Compound 31, 4-((7,7-difluoro-9-isopropyl-5-methyl-6-oxo-6,7,8,9-tetrahydro-5H-pyrimido[4,5-b][1,4]diazepin-2-yl)amino)-N-(7-(2-(1-(4-((2,6-dioxopiperidin-3-yl)amino)-2-fluorophenyl)piperidin-4-yl)ethyl)-7-azaspiro[3.5]nonan-2-yl)-3-methoxybenzamide]: the IC50 in the series on NCI-H526 cell line and with NCI-H69 cell line was less than 30 nM each time. For the same compound, the “Activity: ratio” value on PLK1 was “+++ (+++: <0.3)”.
